Test [1] deals with T1, EP2 (Homo sapiens, UniProt P43116). Put plainly: EP2 cAMP functional assay. The format is cell-based. From the text: (§1) United States Patent Application Publication No. 20070129552, describes the methods used to obtain the in vitro data in Table 1 below. The part of that reference which describes the method is incorporated by reference herein.
For test [2], the target named is T1, EP2. Put plainly: EP2 binding assay.
Description: as §1

Among the data in US8487091B2, “Substituted cyclopentanes having prostaglandin activity” (Allergan, Inc., priority 2008, dated 2013) are EC50 and Ki values, retold here.

SMILES strings stand for the structures. Where “and” joins values, the source holds several entries; their conditions need not be identical. Identical values can stand only once.

A word on the EC50: it is the concentration at which the effect is half-maximal. Read a high EC50 as weaker potency. One may read the Ki as a measure of affinity in units of concentration, obtained from inhibition or displacement. High values mean lower affinity, low ones higher affinity.

T1 sequence (P43116 whole entry): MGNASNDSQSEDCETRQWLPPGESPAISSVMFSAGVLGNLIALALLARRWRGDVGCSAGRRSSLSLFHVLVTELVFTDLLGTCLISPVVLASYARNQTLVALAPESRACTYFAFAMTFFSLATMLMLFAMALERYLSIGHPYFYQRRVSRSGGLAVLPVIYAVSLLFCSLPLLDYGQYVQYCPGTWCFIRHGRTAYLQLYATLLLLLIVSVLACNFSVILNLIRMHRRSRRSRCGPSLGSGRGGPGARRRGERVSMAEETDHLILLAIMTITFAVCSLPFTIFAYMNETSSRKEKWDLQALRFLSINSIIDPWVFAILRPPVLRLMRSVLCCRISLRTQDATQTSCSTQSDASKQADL

On to `CCC1(C(O)C/C=C/[C@@H]2[C@@H](CCCc3ccc(C(=O)O)s3)CC[C@H]2Cl)CCC1` (stereo partly shown) [Compound 10], for which the EC50 in test [1] was 17 nM and 7 nM. Also, in test [2], the Ki is 31 nM and 16 nM.

The compound `CCC1(C(O)C/C=C/[C@H]2C(=O)CC[C@@H]2CCCc2ccc(C(=O)O)s2)CCC1` (stereo partly shown) [Compound 12] showed an EC50 in test [1] of 5.4 nM. The Ki in test [2] amounted to 86 nM.

For the compound `CCC1(C(O)CCC[C@H]2C(=O)CC[C@@H]2CCCc2ccc(C(=O)O)s2)CCC1` (stereo partly shown) [Compound 13], in test [1], a half-maximal effect (EC50) was put at 6.3 nM. Moreover, affinity in test [2] was put at a Ki of 137 nM.

Compound `CCC1(C(O)C/C=C/C2=CCC[C@@H]2CCCc2ccc(C(=O)O)s2)CCC1` (stereo partly shown) [Compound 16] displayed an EC50 in test [1] of 32 nM. Further, affinity in test [2] was put at a Ki of 17 nM.

In test [1], `CCC1(C(O)CCCC2C(C#N)CCC2CCCc2ccc(C(=O)O)s2)CCC1` (stereo not shown) [Compound 22] yielded an EC50 of 18 nM. This compound had a Ki in test [2] of 123 nM.

On to `CCC1(C(O)C/C=C/[C@@H]2[C@@H](CCCc3ccc(C(=O)O)s3)CC[C@H]2F)CCC1` (stereo partly shown) [Compound 25], for which the EC50 in test [1] worked out at 5.7 nM. For the same compound, the Ki in test [2] is 16 nM and 67 nM.

The compound `CCC1(C(O)CCC[C@@H]2[C@@H](CCCc3ccc(C(=O)O)s3)CC[C@H]2F)CCC1` (stereo partly shown) [Compound 27] came in with a half-maximal effective concentration (EC50) in test [1] of 8.5 nM. In addition, the Ki in test [2] is 15 nM and 47 nM.

On to `CCC1(C(O)C/C=C/[C@@H]2[C@@H](CCCc3ccc(C(=O)O)s3)CC[C@@H]2F)CCC1` (stereo partly shown) [Compound 35], for which the EC50 in test [1] is 23 nM. This compound also gave a Ki in test [2] of 36 nM.

In test [1], `CCC1(C(O)CCC[C@@H]2[C@@H](CCCc3ccc(C(=O)O)s3)CC[C@@H]2F)CCC1` (stereo partly shown) [Compound 37] registered an EC50 of 19 nM. In test [2], this compound displayed a Ki of 25 nM.

In test [1], `CCC1(C(O)C/C=C/[C@@H]2[C@@H](CCCc3ccc(C(=O)O)s3)CC[C@@H]2C#N)CCC1` (stereo partly shown) [Compound 41] registered a half-maximal effective concentration (EC50) of 129 nM. Further, the Ki in test [2] is 1390 nM.

In turn, `CCC1(C(O)CCCC2C(C#N)CCC2CCCc2ccc(C(=O)O)s2)CCC1` (stereo not shown) [Compound 43] gave an EC50 in test [1] of 54 nM. In addition, the Ki in test [2] worked out at 516 nM.

With `CCC1(C(O)C/C=C/[C@@H]2[C@@H](CCCc3ccc(C(=O)O)s3)CC[C@@H]2Cl)CCC1` (stereo partly shown) [Compound 50], a half-maximal response in test [1] (EC50) required 117 nM. This compound showed a Ki in test [2] of 1170 nM.

`CCC1(C(O)CCC[C@@H]2[C@@H](CCCc3ccc(C(=O)O)s3)CC[C@@H]2Cl)CCC1` (stereo partly shown) [Compound 51] showed an EC50 in test [1] of 114 nM. This compound also displayed a Ki in test [2] of 377 nM.

On to `CCC1(C(O)CCC[C@@H]2[C@@H](CCCc3ccc(C(=O)O)s3)CC[C@H]2Cl)CCC1` (stereo partly shown) [Compound 67], for which, in test [1], the EC50 worked out at 11 nM. The Ki in test [2] came out at 40 nM.
